This is an account of results in PMC5738440, “Identification and characterization of the structure–activity relationships involved in UGT1A1 inhibition by anthraquinone and dianthrone constituents of Polygonum multiflorum” (Scientific Reports, 2017).

Series [1] has as its target T1, UGT1A1 (Rattus norvegicus, UniProt Q64550).
T1 sequence (Q64550 30-535): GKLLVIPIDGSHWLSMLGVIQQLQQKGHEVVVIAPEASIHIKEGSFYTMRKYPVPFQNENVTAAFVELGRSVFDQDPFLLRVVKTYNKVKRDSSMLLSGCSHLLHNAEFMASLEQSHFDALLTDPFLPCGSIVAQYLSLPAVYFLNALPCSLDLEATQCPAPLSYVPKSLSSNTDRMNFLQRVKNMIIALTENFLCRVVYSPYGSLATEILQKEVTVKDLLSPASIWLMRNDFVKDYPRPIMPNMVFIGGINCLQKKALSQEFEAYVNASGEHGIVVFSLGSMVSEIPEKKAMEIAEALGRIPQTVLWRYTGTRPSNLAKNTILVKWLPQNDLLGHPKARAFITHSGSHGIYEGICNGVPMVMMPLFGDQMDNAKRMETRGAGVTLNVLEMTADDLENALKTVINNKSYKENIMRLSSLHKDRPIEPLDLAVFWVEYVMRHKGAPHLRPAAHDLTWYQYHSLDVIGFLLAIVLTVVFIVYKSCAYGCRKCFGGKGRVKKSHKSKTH
Nature of the series: UGT1A1 inhibition: bilirubin glucuronidation in rat liver microsomes (RLM), enzyme inhibition kinetics. Particulars: for Mode of inhibition: Lineweaver-Burk and Dixon plots. On the procedure: UGT1A1 activity assays were conducted at 37 °C in a shaking water bath[41]. Incubation mixtures (final volume, 0.2 mL) contained 0.5 mg/mL RLM, 0.1 M Tris-HCl (pH 7.4), 5 mM MgCl2, 5 mM D-saccharic acid 1,4-lactone, 3.5 mM UDPGA, and 50 mg/g protein alamethicin. Bilirubin (as a UGT1A1 substrate) and the test samples were dissolved in 100% dimethylsulfoxide (DMSO) immediately before being added to the incubation mixtures. […] The reaction was initiated by adding UDPGA after a 5-min pre-incubation at 37 °C; it was terminated after 10 min by adding 0.6 mL of ice-cold methanol: acetonitrile (1:2) containing 200 mM ascorbic acid. Proteins were precipitated by centrifugation at 13,000 × g for 30 min at 4 °C prior, and the supernatants were analyzed by UPLC.The assays were done in triplicates respectively.
Bilirubin glucuronidation was evaluated in the presence of various concentrations of bilirubin and potential inhibitors, as described above. Samples were analyzed in triplicate to determine their inhibition constants (Ki). For assays with inhibitors, the bilirubin concentration was 0.12 to 1.37 μM.
The inhibition kinetic type and parameters were determined by fitting the reaction velocities of different concentrations of test components (inhibitors) and bilirubin (substrate). Lineweaver–Burk and Dixon fitting equations were employed to determine the inhibition type, and the second plot (drawn using the slope of lines in the Lineweaver–Burk plot versus inhibitor concentrations) was used to calculate the Ki values. The results were analyzed using GraphPad Prism 5 software (GraphPad Inc., San Diego, CA, USA)[48]. […] The goodness-of-fit of the inhibition models was estimated using the F statistic, R^2 value, parameter standard error estimates, and 95% confidence intervals.
For orientation: Liver microsomes are a subcellular fraction often used to study metabolism.

The target of series [2] is rUGT1A1. The note with it: rUGT1A1 system, competitive; cited from earlier work.
The test system of series [3] is UGT1A1. Particulars: HLM system, competitive; cited from earlier work.
Series [4] concerns the target T1, UGT1A1. The note with it: RLM system, competitive; cited from earlier work.
Where [5] appears, read: Ki value, bilirubin substrate, extract concentration based on emodin content.

Like-named read-outs stand apart in the source and are kept apart here.

In general, Ki refers to the equilibrium dissociation constant of an inhibitor or competing ligand from its target. Turning to `Cc1cc(O)c2c(c1)C(C1c3cc(C)cc(O)c3C(=O)c3c(O)cc(O)cc31)c1cc(O)cc(O)c1C2=O` (stereo not drawn) [Cis-emodin dianthrones], in series [1] (setting [5]), affinity was put at a Ki of 0.863 µM.
In turn, `O=C1c2cc(O)cc(O)c2C(=O)c2c(O)cc(CO)cc21` [Citreorosein] gave a Ki in series [1] (setting [5]) of 18.6 µM. Besides, the Mode of inhibition entry in series [1] is recorded as “Mixed Type inhibition”.
Regarding `Cc1cc(O)c2c(c1)C(=O)c1cc(O)cc(O)c1C2=O` [Emodin], the Ki is 10 µM in series [1] (setting [5]), 4.85 ± 0.528 µM in series [2], 5.4 ± 0.956 µM in series [3] and 10 ± 0.611 µM in series [4]. The Mode of inhibition entry in series [1] is listed as “Competitive inhibition”.
For the molecule `COc1cc(O)c2c(c1)C(=O)c1cc(C)cc(O)c1C2=O` [Physcion], affinity in series [1] (setting [5]) was put at a Ki of 94.7 µM. The Mode of inhibition result in series [1] is “Non-Competitive inhibition”.
Molecule `Cc1cc(O)c2c(c1)C(C1c3cc(C)cc(O)c3C(=O)c3c(OC4OC(CO)C(O)C(O)C4O)cc(O)cc31)c1cc(O)cc(O)c1C2=O` (stereo not drawn) [Polygonumnolide C2] had a Ki in series [1] (setting [5]) of 4.29 µM. In addition, the Mode of inhibition entry in series [1] is “Non-Competitive inhibition”. Moreover, affinity in series [1] (rat, pH 7.4, probe bilirubin (0.12-1.37 μM), Ki value, bilirubin substrate, extract concentration based on emodin content) was put at a Ki at 10 min of 4.22 µM.
Molecule `Cc1cc(O)c2c(c1)C(C1c3cc(C)cc(O)c3C(=O)c3c(OC4OC(CO)C(O)C(O)C4O)cc(O)cc31)c1cc(O)cc(O)c1C2=O` (stereo not drawn) [Polygonumnolide C3] had a Ki in series [1] (setting [5]) of 12.9 µM. In series [1], the Mode of inhibition result is given as “Non-Competitive inhibition”.
The like results for `Cc1cc(O)c2c(c1)C(C1c3cc(C)cc(O)c3C(=O)c3c(OC4OC(CO)C(O)C(O)C4O)cc(O)cc31)c1cc(O)cc(O)c1C2=O` (stereo not drawn) [Polygonumnolide C4] were, in that order, 77.4 µM and “Un-Competitive inhibition”.
In series [1] (setting [5]), `O=C(O)c1cc(O)c2c(c1)C(=O)c1cccc(O)c1C2=O` [Rhein] showed a Ki of 127 µM. Further, in series [1], the Mode of inhibition result is reported as “Mixed Type inhibition”.
The like results for `Cc1cc(O)c2c(c1)C(C1c3cc(C)cc(O)c3C(=O)c3c(O)cc(O)cc31)c1cc(O)cc(O)c1C2=O` (stereo not drawn) [Trans-emodin dianthrones] were, in that order, 1.08 µM and “Competitive inhibition”.
